For four compounds, EC50 results are on record in ChEMBL document CHEMBL1144765, “Des-A-ring benzothiadiazines: inhibitors of HCV genotype 1 NS5B RNA-dependent RNA polymerase” (Bioorg Med Chem Lett, 2008).

What all share (assay): microbe, parasite or virus in culture
The subject of assay [1] is Hepatitis C virus. Particulars: genotype 1b.
The subject of assay [2] is Hepatitis C virus. Particulars: genotype 1b. This is another data set of the same source.
The test system of assay [3] is Hepatitis C virus. The settings on record: subtype 1a.
Assay [4] deals with Hepatitis C virus. The settings on record: genotype 1b. The source holds these as a separate data set.

For orientation: EC50 means the concentration that produces a half-maximal response. A lower EC50 goes with an effect from little substance. For the compound `C/C=C/c1cn(CCC(C)C)c(=O)c(C2=NS(=O)(=O)c3cc(NS(C)(=O)=O)ccc3N2)c1O`, the concentration giving a half-maximal response (EC50) in assay [1] stood at 38.2 nM; in assay [2], 5.6 nM.
For the compound `CC(C)CCn1ccc(O)c(C2=NS(=O)(=O)c3cc(NS(C)(=O)=O)ccc3N2)c1=O`, the EC50 in assay [1] was found to be 911 nM; in assay [2], 163 nM.
Taken in the same sequence, the figures for `C=Cc1cn(CCC(C)C)c(=O)c(C2=NS(=O)(=O)c3cc(NS(C)(=O)=O)ccc3N2)c1O` were 62.5 nM and 8.8 nM.
For `CC(C)CCn1c(=O)c(C2=NS(=O)(=O)c3cc(NS(C)(=O)=O)ccc3N2)c(O)c2cccnc21`, the EC50 came out at 736 nM in assay [1], 2 nM in assay [2], 16 nM in assay [3] and 2 nM in assay [4].
